Data taken from patent publication US20240158370A1, “CK1 alpha AND DUAL CK1 alpha / GSPT1 DEGRADING COMPOUNDS” (Innovo Therapeutics, Inc., priority 2022, published 2024).

Legend:
GSPT1 = GSPT1 (Homo sapiens, UniProt P15170+Q96SW2); test: HiBiT degradation assay, GSPT1, Procedure A; format: cell-based; set-up: HiBit-GSPT1 KI HEK293(LgBit) Cells; host or cells: HEK293(LgBit) knock-in cells
Experimental: (§1) Compounds were spotted onto Cornin 384-Well, Cell Culture-Treated, Flat-Bottom, Low Flange Microplate (Fisher Scientific, Catalog #07-201-013) using a Tecan D300e digital dispenser. Ten-point dose response curves spanning from 10 μM to 0.005 μM with a 0.1% DMSO tolerance were used.
(§2) Cells were dissociated from tissue 182 cm^2 Tissue Culture Flask (CellTreat Catalog #229351) by washing the cells with PBS (Fisher Scientific Catalog #BP3994) followed by dissociation with Trypsin-EDTA (0.25%) (Thermo Scientific Catalog #25200056). Trysin was neutralized and cells were resuspended with DMEM+10% FBS. Cells were centrifuged for 5 minutes at 1200 RPMs. Cell culture media was aspirated off and cells were resuspended with DMEM+10% FBS. Cell density was determined using a Denovix CellDrop BF cell counter. Cell density was adjusted to 1×10^6 cells/ml. 40 μl of cells was added to compound treated tissue culture plates and incubated for six hours at 37° C. After six hours, cell culture plates were removed from tissue culture incubator and cooled to room temperature. 40 μl of Nano-GloHiBiT Lytic Detection Reagent (Promega, Catalog #N3040) was added to each well. Plates were placed on an orbital shaker (600 rpm) for 20 minutes. Luminescence was measured using an Envsion plate reader (Perkin Elmer). DC50 curves and Ymin were generated using a 4-parameter curve fit with GraphPad Prism software (Prism Corporation).
(§3) Results from the HiBiT assay (DC50 (nM) and Ymin (% remaining)) are shown below. All CK1α data was generated according to Procedure A. GSPT1 data for Examples 1-600, 603-620 and 703-705 was generated according to Procedure A. GSPT1 data for Examples 601, 621-702 and 706-735 was generated according to Procedure B.

CK1α = target: T1, CK1α (Homo sapiens, UniProt P48729+Q96SW2); test: HiBiT degradation assay, CK1α, Procedure A; format: cell-based
T1 construct: CSNK1A1-HiBit KI HEK293(LgBit) Cells; host or cells: HEK293(LgBit) knock-in cells
T1 sequence (P48729 whole entry): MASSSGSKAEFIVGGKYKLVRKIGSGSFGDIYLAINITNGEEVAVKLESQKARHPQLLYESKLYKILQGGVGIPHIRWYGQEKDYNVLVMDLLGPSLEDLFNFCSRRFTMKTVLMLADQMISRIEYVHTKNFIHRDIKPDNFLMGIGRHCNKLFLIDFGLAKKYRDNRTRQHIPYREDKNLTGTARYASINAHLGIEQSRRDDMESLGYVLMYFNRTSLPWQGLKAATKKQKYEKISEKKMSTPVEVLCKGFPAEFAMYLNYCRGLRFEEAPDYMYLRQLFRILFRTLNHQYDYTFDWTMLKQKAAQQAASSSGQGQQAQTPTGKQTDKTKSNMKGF
T1 sequence (Q96SW2 whole entry): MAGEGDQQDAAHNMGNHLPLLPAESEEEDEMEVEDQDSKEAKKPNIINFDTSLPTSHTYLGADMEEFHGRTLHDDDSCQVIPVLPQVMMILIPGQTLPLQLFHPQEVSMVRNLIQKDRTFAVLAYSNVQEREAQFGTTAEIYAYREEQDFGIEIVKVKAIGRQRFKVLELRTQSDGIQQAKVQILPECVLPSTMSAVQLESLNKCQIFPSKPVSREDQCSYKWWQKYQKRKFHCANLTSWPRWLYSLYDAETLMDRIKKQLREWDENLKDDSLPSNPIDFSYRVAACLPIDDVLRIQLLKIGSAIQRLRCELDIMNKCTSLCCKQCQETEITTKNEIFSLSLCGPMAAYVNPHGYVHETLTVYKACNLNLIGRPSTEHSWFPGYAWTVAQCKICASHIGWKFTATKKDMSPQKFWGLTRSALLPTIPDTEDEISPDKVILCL
T1 sequence (Q16531 whole entry partner): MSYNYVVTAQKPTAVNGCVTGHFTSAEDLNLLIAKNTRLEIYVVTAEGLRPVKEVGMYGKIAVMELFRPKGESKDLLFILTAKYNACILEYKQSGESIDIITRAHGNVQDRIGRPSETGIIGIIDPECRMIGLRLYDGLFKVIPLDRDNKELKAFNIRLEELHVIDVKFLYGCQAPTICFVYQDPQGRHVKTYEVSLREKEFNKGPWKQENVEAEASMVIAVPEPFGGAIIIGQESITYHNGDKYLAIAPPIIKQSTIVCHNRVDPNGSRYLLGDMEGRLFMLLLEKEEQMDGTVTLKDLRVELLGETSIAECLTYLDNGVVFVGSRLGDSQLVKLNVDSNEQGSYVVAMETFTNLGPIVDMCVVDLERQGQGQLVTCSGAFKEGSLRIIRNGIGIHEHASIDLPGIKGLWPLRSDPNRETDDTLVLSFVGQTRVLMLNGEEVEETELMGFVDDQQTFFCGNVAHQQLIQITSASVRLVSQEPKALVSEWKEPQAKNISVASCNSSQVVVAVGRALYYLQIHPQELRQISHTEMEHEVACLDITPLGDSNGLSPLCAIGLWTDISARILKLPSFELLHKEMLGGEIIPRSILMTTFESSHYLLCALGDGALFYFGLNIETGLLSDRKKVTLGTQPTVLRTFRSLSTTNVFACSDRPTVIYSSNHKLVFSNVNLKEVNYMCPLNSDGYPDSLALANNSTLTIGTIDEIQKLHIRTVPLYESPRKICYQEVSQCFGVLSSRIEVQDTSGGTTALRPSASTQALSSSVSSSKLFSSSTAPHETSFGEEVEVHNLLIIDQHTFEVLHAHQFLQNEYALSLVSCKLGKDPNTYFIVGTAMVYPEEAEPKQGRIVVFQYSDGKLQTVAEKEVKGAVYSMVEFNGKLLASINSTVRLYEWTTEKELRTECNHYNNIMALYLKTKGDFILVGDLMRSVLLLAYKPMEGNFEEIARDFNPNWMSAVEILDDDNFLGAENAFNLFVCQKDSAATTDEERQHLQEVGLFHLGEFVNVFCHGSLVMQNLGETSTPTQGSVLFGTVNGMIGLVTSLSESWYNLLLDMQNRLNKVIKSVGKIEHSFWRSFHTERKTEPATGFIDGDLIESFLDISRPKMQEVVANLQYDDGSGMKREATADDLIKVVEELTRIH
Experimental: as §1, §2, §3

GSPT1, sequence (P15170 whole entry): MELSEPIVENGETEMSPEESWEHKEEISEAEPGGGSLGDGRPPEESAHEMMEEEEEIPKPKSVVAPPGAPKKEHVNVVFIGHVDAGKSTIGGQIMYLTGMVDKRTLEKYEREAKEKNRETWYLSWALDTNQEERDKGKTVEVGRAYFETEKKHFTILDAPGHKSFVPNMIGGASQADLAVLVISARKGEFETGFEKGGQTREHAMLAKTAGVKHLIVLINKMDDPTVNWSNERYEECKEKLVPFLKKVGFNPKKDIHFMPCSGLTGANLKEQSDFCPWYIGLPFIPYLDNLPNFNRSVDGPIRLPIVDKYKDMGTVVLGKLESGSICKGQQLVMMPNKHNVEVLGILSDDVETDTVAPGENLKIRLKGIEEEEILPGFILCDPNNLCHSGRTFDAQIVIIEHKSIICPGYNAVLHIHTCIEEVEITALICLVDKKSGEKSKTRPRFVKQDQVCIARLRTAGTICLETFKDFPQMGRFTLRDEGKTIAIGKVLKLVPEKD
GSPT1, sequence (Q96SW2 whole entry): as the sequence (Q96SW2 whole entry) above
GSPT1, sequence (Q16531 whole entry partner): as the sequence (Q16531 whole entry partner) above

Row | SMILES | DC50 (GSPT1; six hours incubation) [µM] | GSPT1 Ymin (GSPT1; six hours incubation) | CK1α Ymin (CK1α; six hours incubation) | DC50 (CK1α; six hours incubation) [µM] | DC50 (GSPT1; six hours) [µM] | GSPT1 Ymin (GSPT1; six hours) | CK1α Ymin (CK1α; six hours) | DC50 (CK1α; six hours) [µM]
1 | Cn1ncc(-c2ccc3c(c2)CN(C2CCC(=O)NC2=O)C3=O)c1-c1cccc(Cl)c1 (stereo not shown) [Example 129] | ≥ 0.025 | F (F = >75-100% remaining) | E (E = >25-75% remaining) | < 0.025 | – | – | – | –
2 | Cn1cnc(-c2ccc3c(c2)CN(C2CCC(=O)NC2=O)C3=O)c1-c1ccc2[nH]ccc2c1 (stereo not shown) [Example 346] | ≥ 0.025 | F (F = >75-100% remaining) | D (D = >10- 25% remaining) | < 0.025 | – | – | – | –
3 | Cn1ncc(-c2ccc3c(c2)CN(C2CCC(=O)NC2=O)C3=O)c1-c1ccc(OCc2ccccc2)c(Cl)c1 (stereo not shown) [Example 81] | ≥ 0.025 | F (F = >75-100% remaining) | E (E = >25-75% remaining) | ≥ 0.025 | – | – | – | –
4 | Cn1cnc(-c2ccc3c(c2)CN(C2CCC(=O)NC2=O)C3=O)c1-c1ccccc1 (stereo not shown) [Example 2, 3-(5-(1-Methyl-5-phenyl-1H-imidazol-4-yl)-1-oxoisoindolin-2-yl)piperidine-2,6-dione] | < 0.025 | E (E = >25-75% remaining) | C (C = 0-10% remaining) | < 0.025 | – | – | – | –
5 | Cc1cn(-c2ccc3c(c2)CN(C2CCC(=O)NC2=O)C3=O)nc1-c1ccccc1 (stereo not shown) [Example 618, 3-(5-(4-methyl-3-phenyl-1H-pyrazol-1-yl)-1-oxoisoindolin-2-yl)piperidine-2,6-dione] | – | – | – | – | ≥ 0.025 | F (F = >75-100% remaining) | D (D = >10- 25% remaining) | < 0.025
6 | CCOC(=O)Cc1cccc(-c2c(-c3ccc4c(c3)CN(C3CCC(=O)NC3=O)C4=O)cnn2C)c1 (stereo not shown) [Example 410] | – | – | – | – | ≥ 0.025 | F (F = >75-100% remaining) | E (E = >25-75% remaining) | < 0.025
7 | Cn1cnc(-c2ccc3c(c2)CN(C2CCC(=O)NC2=O)C3=O)c1C1=CCCCC1 (stereo not shown) [Example 595] | – | – | – | – | ≥ 0.025 | F (F = >75-100% remaining) | D (D = >10- 25% remaining) | < 0.025
8 | O=C1CCC(N2Cc3cc(-c4cnn(C(F)F)c4-c4ccc5c(c4)CCO5)ccc3C2=O)C(=O)N1 (stereo not shown) [Example 424, 3-(5-(1-(difluoromethyl)-5-(2,3-dihydrobenzofuran-5-yl)-1H-pyrazol-4-yl)-1-oxoisoindolin-2-yl)piperidine-2,6-dione] | – | – | – | – | ≥ 0.025 | F (F = >75-100% remaining) | D (D = >10- 25% remaining) | < 0.025
9 | Cn1cnc(-c2ccc3c(c2)CN(C2CCC(=O)NC2=O)C3=O)c1-c1cc(F)ccc1F (stereo not shown) [Example 179] | < 0.025 | E (E = >25-75% remaining) | D (D = >10- 25% remaining) | < 0.025 | – | – | – | –
10 | COc1cccc(-c2c(-c3ccc4c(c3)CN(C3CCC(=O)NC3=O)C4=O)ncn2C)c1 (stereo not shown) [Example 345] | ≥ 0.025 | F (F = >75-100% remaining) | E (E = >25-75% remaining) | < 0.025 | – | – | – | –
11 | Cn1cnc(-c2ccc3c(c2)CN(C2CCC(=O)NC2=O)C3=O)c1-c1cccc(C(=O)NC2CCCCC2)c1 (stereo not shown) [Example 302] | ≥ 0.025 | F (F = >75-100% remaining) | E (E = >25-75% remaining) | ≥ 0.025 | – | – | – | –
12 | COCc1ccc(-c2c(-c3ccc4c(c3)CN(C3CCC(=O)NC3=O)C4=O)cnn2C)cc1 (stereo not shown) [Example 141] | ≥ 0.025 | F (F = >75-100% remaining) | E (E = >25-75% remaining) | < 0.025 | – | – | – | –
13 | Cc1ccc(-c2c(-c3ccc4c(c3)CN(C3CCC(=O)NC3=O)C4=O)cnn2C)cc1CO (stereo not shown) [Example 157] | ≥ 0.025 | F (F = >75-100% remaining) | E (E = >25-75% remaining) | ≥ 0.025 | – | – | – | –
14 | O=C1CCC(N2Cc3cc(-c4cn(C(F)F)nc4-c4ccc5c(c4)CCO5)ccc3C2=O)C(=O)N1 (stereo not shown) [Example 423, 3-(5-(1-(difluoromethyl)-3-(2,3-dihydrobenzofuran-5-yl)-1H-pyrazole-4-yl)-1-oxoisoindolin-2-yl)piperidine-2,6-dione] | – | – | – | – | ≥ 0.025 | F (F = >75-100% remaining) | D (D = >10- 25% remaining) | < 0.025
15 | Cn1ncc(-c2ccc3c(c2)CN(C2CCC(=O)NC2=O)C3=O)c1-c1ccc(OCCCN2CCOCC2)cc1 (stereo not shown) [Example 220] | ≥ 0.025 | F (F = >75-100% remaining) | E (E = >25-75% remaining) | < 0.025 | – | – | – | –
16 | Cn1cnc(-c2ccc3c(c2)CN(C2CCC(=O)NC2=O)C3=O)c1-c1cccc(-c2cccnc2)c1 (stereo not shown) [Example 352] | ≥ 0.025 | F (F = >75-100% remaining) | C (C = 0-10% remaining) | < 0.025 | – | – | – | –
17 | Cn1ncc(-c2ccc3c(c2)CN(C2CCC(=O)NC2=O)C3=O)c1-c1cc(F)ccc1F (stereo not shown) [Example 77] | ≥ 0.025 | F (F = >75-100% remaining) | E (E = >25-75% remaining) | < 0.025 | – | – | – | –
18 | Cn1cnc(-c2ccc3c(c2)CN(C2CCC(=O)NC2=O)C3=O)c1-c1ccccc1C#N (stereo not shown) [Example 233] | ≥ 0.025 | F (F = >75-100% remaining) | D (D = >10- 25% remaining) | < 0.025 | – | – | – | –

Now from value to compound:

Row | DC50 (GSPT1; six hours incubation) [µM] | GSPT1 Ymin (GSPT1; six hours incubation) | CK1α Ymin (CK1α; six hours incubation) | DC50 (CK1α; six hours incubation) [µM] | DC50 (GSPT1; six hours) [µM] | GSPT1 Ymin (GSPT1; six hours) | CK1α Ymin (CK1α; six hours) | DC50 (CK1α; six hours) [µM] | SMILES
19 | < 0.025 | F (F = >75-100% remaining) | E (E = >25-75% remaining) | < 0.025 | – | – | – | – | Cn1ncc(-c2ccc3c(c2)CN(C2CCC(=O)NC2=O)C3=O)c1-c1ccc(OC(F)(F)F)cc1 (stereo not shown) [Example 340, 3-(5-(1-methyl-5-(4-(trifluoromethoxy)phenyl)-1H-pyrazol-4-yl)-1-oxoisoindolin-2-yl)piperidine-2,6-dione]
20 | – | – | – | – | < 0.025 | F (F = >75-100% remaining) | D (D = >10- 25% remaining) | ≥ 0.025 | Cn1cc(-c2ccc3c(c2)CN(C2CCC(=O)NC2=O)C3=O)nc1-c1ccn2ccnc2c1 (stereo not shown) [Example 585]
21 | – | – | – | – | < 0.025 | F (F = >75-100% remaining) | D (D = >10- 25% remaining) | < 0.025 | Cc1occc1-c1c(-c2ccc3c(c2)CN(C2CCC(=O)NC2=O)C3=O)ncn1C (stereo not shown) [Example 483]
22 | ≥ 0.025 | F (F = >75-100% remaining) | E (E = >25-75% remaining) | < 0.025 | – | – | – | – | Cn1cnc(-c2ccc3c(c2)CN(C2CCC(=O)NC2=O)C3=O)c1-c1cccc(N2CCCCC2)c1 (stereo not shown) [Example 296]
23 | ≥ 0.025 | F (F = >75-100% remaining) | E (E = >25-75% remaining) | < 0.025 | – | – | – | – | Cc1ccsc1-c1c(-c2ccc3c(c2)CN(C2CCC(=O)NC2=O)C3=O)ncn1C (stereo not shown) [Example 344]
24 | – | – | – | – | ≥ 0.025 | E (E = >25-75% remaining) | C (C = 0-10% remaining) | < 0.025 | Cn1cnc(-c2ccc3c(c2)CN(C2CCC(=O)NC2=O)C3=O)c1-c1ccc2[nH]ncc2c1 (stereo not shown) [Example 510]
25 | ≥ 0.025 | F (F = >75-100% remaining) | D (D = >10- 25% remaining) | < 0.025 | – | – | – | – | Cn1ncc(-c2ccc3c(c2)CN(C2CCC(=O)NC2=O)C3=O)c1-c1ccc(-n2cccn2)cc1 (stereo not shown) [Example 150]
26 | – | – | – | – | ≥ 0.025 | F (F = >75-100% remaining) | D (D = >10- 25% remaining) | < 0.025 | Cn1cc(-c2ccc3c(c2)CN(C2CCC(=O)NC2=O)C3=O)nc1C1CCC2(CC1)CC2 (stereo not shown) [Example 534, 3-(5-(1-Methyl-2-(spiro[2.5]octan-6-yl)-1H-imidazol-4-yl)-1-oxoisoindolin-2-yl)piperidine-2,6-dione]
27 | – | – | – | – | ≥ 0.025 | E (E = >25-75% remaining) | C (C = 0-10% remaining) | < 0.025 | COc1ccc(-c2c(-c3ccc4c(c3)CN(C3CCC(=O)NC3=O)C4=O)cnn2C(F)F)cc1 (stereo not shown) [Example 418, 3-(5-(1-(difluoromethyl)-5-(4-methoxyphenyl)-1H-pyrazol-4-yl)-1-oxoisoindolin-2-yl)piperidine-2,6-dione]
28 | ≥ 0.025 | F (F = >75-100% remaining) | C (C = 0-10% remaining) | < 0.025 | – | – | – | – | Cn1cc(-c2ccc3c(c2)CN(C2CCC(=O)NC2=O)C3=O)nc1-c1ccc(C(F)(F)F)cc1 (stereo not shown) [Example 209, 3-(5-(1-methyl-2-(4-(trifluoromethyl)phenyl)-1H-imidazol-4-yl)-1-oxoisoindolin-2-yl)piperidine-2,6-dione]
